Publication PMC9763021, “Comprehensive Assessment of Biomolecular Interactions of Morpholine-Based Mixed Ligand Cu(II) and Zn(II) Complexes of 2,2′-Bipyridine as Potential Anticancer and SARS-CoV-2 Agents: A Synergistic Experimental and Structure-Based Virtual Screening” (Bioinorganic Chemistry and Applications, 2022)

Assays:
[1] = system: calf thymus deoxyribonucleic acid; assay: DNA binding by viscometric (hydrodynamic) technique
Procedure: The titrations were performed for all compounds including EB (control) at 20, 40, 60, 80, and 100 μM concentrations. In the Ostwald viscometer, these substances were also separately treated with the calf thymus deoxyribonucleic acid solution (100 μM).
Hydrodynamic findings can be utilized to assess the alteration of DNA length and afford details on the binding tendency between small molecules and biomolecules. As a result of their sensitivity to DNA contour length changes, which implies that the average distance between each monomer (cl = 0.338 nm/bp for B-form DNA), the DNA binding properties of all test compounds were further validated by this method. According to the Lerman concept, interactions between small molecules and deoxyribonucleic acid via covalent and noncovalent bindings are often possible. When a chemical substance interacts with the deoxyribonucleic acid double helix, the contour length of DNA increases via intercalation and leads to an increase in the absolute viscosity. Meanwhile, if DNA viscosity is not affected during interactions, which leads to the responsible for the major/minor groove binding due to H-bond/Van der Waals interactions, electrostatic, partial, or nonclassical interaction modes. Therefore, analyzing the binding modes provides additional support for the findings as well as a crucial aspect of the conventional intercalation concept. In this case, it was observed that the absolute viscosity increased consistently along with the concentration of each substance at the fixed DNA concentration. The DNA must extend to facilitate the binding of ligands, which causes a considerable rise in DNA viscosity while small molecules intercalate into the DNA helix. According to equation (12), an increase in relative viscosity denotes an intercalation-induced lengthening of the deoxyribonucleic acid base pair. While adhering to the principle of excluding the nearest neighbors, intercalation entails inserting a planar molecule into a DNA base pair without rupturing the hydrogen bonds that hold the base pairs together. This causes a diminution in the DNA helical twist and an extension of the DNA. Moreover, a molecule can be presumed to bind to deoxyribonucleic acid by intercalation between base pairs if it causes lengthening and unwinding of the deoxyribonucleic acid base pairs. In this case, the relative viscosity of DNA gradually increases, while the […]. Moreover, the affinity interactions and their slope values were observed from the relative specific viscosity (η⁄η0)^1/3 plotted straight line contrasting [Compound]/[DNA], and absolute specific viscosity of deoxyribonucleic acid in the absence or presence of samples was evaluated using equation (12) (Table 3). […] The evaluated slope findings were in the subsequent sequence: (EB) 1.215 > (1a) 0.915 > (2a) 0.630 > (HL) 0.490 (Figure S21 and Table 3). […] Due to the existence of the 2,2′-bipyridine and morpholine-fused aromatic planar systems, compounds can interact with deoxyribonucleic acid robustly via intercalation. The outcomes were excellent in accordance with the observed outcomes of absorption spectral properties.(11) η/η0^1/3=tcomplex−t0/t0/tDNA−t0/t0, where η and η0 are represented as specific viscosity of DNA in the presence complex and specific viscosity of DNA alone, and t0, tDNA, and tcomplex are represented as the average flow time of the Tris-HCl buffer solution, the average flow time of DNA alone solution, and the average flow time of DNA interacted with the samples, respectively. Error limit is ±2.5% (P < 0.025).

[2] = Hydroxyl radical scavenging assay; type: biochemical; conditions: for % Inhibition hydroxyl radical: 230 nm
Procedure: All samples were evaluated for their scavenging ability with the help of UV-visible spectrophotometer at different concentrations of 40, 80, 120, 160, 200, and 240 μM [6, 28]. While performing the antioxidant properties for the DPPH, hydroxyl, superoxide, and nitric oxide radical scavenging, the absorbance at 517, 230, 590, and 546 nm, respectively, was closely observed. In addition, the observed IC50 values of all samples were compared with ascorbic acid.
Hydrogen peroxide receives electrons from antioxidant molecules and then neutralizes them into a water molecule. ^●OH inhibition capability was determined from the % of inhibition for all test substances at 230 nm.

[3] = system: Salmonella enteric serovar typhi; assay: Agar disc diffusion, strain B; type: cell-based; conditions: for diameter of the clear zone inhibition: control = 6 mm
Procedure: (§1) In-vitro antimicrobial properties were evaluated for all samples by the agar disc diffusion method towards different fungal and bacterial strains. Additionally, the reported inhibition zone values were comparatively analyzed with the standard antifungal drugs ketoconazole and amphotericin B as well as the standard antibiotic medications streptomycin and amikacin.
(§2) The current research has a curious focus on the in vitro antimicrobial properties of biological systems because these studies are crucial for developing effective antibacterial and antifungal medications. […] It can also be spelled out based on the chelation theory proposed by Overtone and Tweedy. Chelation theory points out that the partial exchanging of the positive charge of the metal center with donor moieties, and overlap of the ligand orbitals will reduce the greater degree of the metal ion's polarity, which ultimately rises the delocalization of π and d electrons over the full chelated ring system. By raising the size of the metal ion due to the retarding of polarization, chelation may also enhance the complexes' lipophilic characteristics, which further stimulate the lipid membrane permeability and break down the bacteria' enzymes responsible for cell wall formation, therefore slowing down the regular cell processes. By preventing the production of cell walls/proteins/DNA, including by obstructing folate metabolism and the cytoplasmic membrane, antimicrobial drugs frequently either fully eliminate microbes or only prevent their cell growth. Additionally, the samples' mode of action may be employed in disrupting the cell's respiration process by forming an H-bond during the morpholine-fused iminic group coordinated with the active metal center of its components, inhibiting proliferation of the cell. […] The difference in the antimicrobial efficacy of some of the compounds towards various microorganisms influences on the impermeability of the cells of the germs or the diversity of ribosomes of the microbes. The % of the inhibition of all substances is estimated from (45) (Table 9).
(§3) (A, B, C, D, and E are represented as gram negative bacteria species Escherichia coli, Salmonella enteric serovar typhi, Salmonella enteric serovar typhi, Pseudomonas aeruginosa, and Shigella flexneri, respectively. F & G are denoted as gram positive bacteria species Staphylococcus aureus and Bacillus cereus. H, I, and J are represented as fungal strains Aspergillus niger, Candida albicans, and Mucor indicus. Standard drugs for bacterial strains: Amikacin & Streptomycin Standard drugs for fungal strains: Ketoconazole and Amphotericin B. [Control (DMSO) = 6 mm].(44) Inhibition %=T–C/T×100, where T and C are represented as the diameter of microbial growth of the sample plates and the control plate (6 mm), respectively. Error limits ±2.5–5.0% (P ≤ 0.05).

Shigella flexneri = assay: Agar disc diffusion, strain E; type: cell-based; design: (inhibition %): concentration or dose not given beside the values; conditions: for diameter of the clear zone inhibition: control = 6 mm
Procedure: as §1, §2, §3

Candida albicans = assay: Agar disc diffusion, strain I; type: cell-based; design: (inhibition %): concentration or dose not given beside the values; conditions: for diameter of the clear zone inhibition: control = 6 mm
Procedure: as §1, §2, §3

| SMILES | Slope of (η/η0)^1/3 vs [Compound]/[DNA] [1] | Relative specific viscosity (η/η0)^1/3 ([1]; [complex]/[DNA] = 0.2) | Relative specific viscosity (η/η0)^1/3 ([1]; [complex]/[DNA] = 0.4) | Relative specific viscosity (η/η0)^1/3 ([1]; [complex]/[DNA] = 0.6) | Relative specific viscosity (η/η0)^1/3 ([1]; [complex]/[DNA] = 0.8) | Relative specific viscosity (η/η0)^1/3 ([1]; [complex]/[DNA] = 1.0) | % Inhibition hydroxyl radical ([2]; 40 µM) | % Inhibition hydroxyl radical ([2]; 80 µM) | % Inhibition hydroxyl radical ([2]; 120 µM) | % Inhibition hydroxyl radical ([2]; 160 µM) | % Inhibition hydroxyl radical ([2]; 200 µM) | % Inhibition hydroxyl radical ([2]; 240 µM) | (inhibition %) [3] | diameter of the clear zone inhibition [3] | (inhibition %) (Shigella flexneri) | diameter of the clear zone inhibition (Shigella flexneri) | (inhibition %) (Candida albicans) | diameter of the clear zone inhibition (Candida albicans) | IC50 [2] |
| --- | --- | --- | --- | --- | --- | --- | --- | --- | --- | --- | --- | --- | --- | --- | --- | --- | --- | --- | --- |
| [O-]c1ccccc1N=Cc1ccc(N2CCOCC2)cc1.[O-]c1ccccc1N=Cc1ccc(N2CCOCC2)cc1.[Zn+2].c1ccc(-c2ccccn2)nc1 [(2a), [Zn(L)2(bpy)]] | 0.630 | 0.74 | 0.81 | 0.87 | 1.03 | 1.26 | 08.25% | 16.86% | 25.78% | 34.66% | 45.78% | 56.14% | 33% | 09 mm | 45% | 11 mm | 54% | 13 mm |  |
| [Cu+2].[O-]c1ccccc1N=Cc1ccc(N2CCOCC2)cc1.[O-]c1ccccc1N=Cc1ccc(N2CCOCC2)cc1.c1ccc(-c2ccccn2)nc1 [(1a), [Cu(L)2(bpy)]] | 0.915 | 0.88 | 1.11 | 1.22 | 1.38 | 1.66 | 09.16% | 18.23% | 32.22% | 40.12% | 51.14% | 61.10% | 40% | 10 mm | 45% | 11 mm | 50% | 12 mm | 200 µM |
| Oc1ccccc1N=Cc1ccc(N2CCOCC2)cc1 [(HL), 2-(4-morpholinobenzylideneamino)phenol] | 0.490 | 0.61 | 0.67 | 0.75 | 0.85 | 1.01 | 07.26% | 14.43% | 25.52% | 33.86% | 40.73% | 50.68% | 33% | 09 mm | 57% | 14 mm | 40% | 10 mm |  |
